Broadly, the AC50 is the concentration at which the activity in the assay is half-maximal.

Consider 7 molecules from PubChem BioAssay AID493172 (Broad Institute, 2011).

Calls of active or inactive are those of the source.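 How the source made its calls: active means falling signal with an AC50 no greater than ten times the top valid dose tested for that sample; inconclusive means flat curve with inhibition of 30 to 70 percent, or poor fit; inactive means activity in the rising direction, and the rest.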 Some results are limits rather than exact numbers.

The target in this assay is LuxS (S-ribosylhomocysteine lyase), bacterial. Put plainly: S-ribosylhomocysteine lyase activity inhibition – biochemical, dry powder, set 2, absorbance, dose response (AID 493172). To be noted: purified Co-LuxS, DTNB homocysteine absorbance 412 nm; for activity change, negative = inhibition: at 35 µM (top of the series).

Take `Cn1cnc(S(=O)(=O)Nc2ccc(OC(F)(F)F)cc2)c1`: the “activity change, negative = inhibition” value is “inactive”.

For `Cc1cccc(NS(=O)(=O)c2ccc(Oc3ccccc3)cc2)n1`, the “activity change, negative = inhibition” value is “inactive”.

As to `CCc1ccc(C(=O)Nc2ccc(Br)cn2)cc1`, the “activity change, negative = inhibition” value was “inactive”.

`Cc1cccc(NC(=O)c2ccc(Oc3ccccc3)cc2)n1`: the “activity change, negative = inhibition” value is “inactive”.

Take `C=Cn1c(C(=O)O)ccc1-c1ccc(CC)cc1`: the AC50 was > 35 µM (inactive).

On to `CCc1ccc(S(=O)(=O)Nc2ccc(Br)cn2)cc1`, for which the “activity change, negative = inhibition” value is “inactive”.

Take `COc1cc(NC(=O)CN2C(=O)NC(c3ccccc3)(c3ccccc3)C2=O)cc(OC)c1`: the “activity change, negative = inhibition” value was “inactive”.
